The conditions of data set [1]: in vivo; cited from earlier work.
Data set [2] is described as follows: Intraocular C-peptide levels by human C-peptide ELISA after intravitreal injection. The data set is classed as in vivo, C57BL/6 mice. Particulars: C57BL/6, mouse, 1.2 ug, single intravitreal injection of equimolar K9-C-peptide (20 μg) or human C-peptide (1.2 μg), whole eyeball lysate, 50 kDa cutoff filtrate, n = 6, read-out: intraocular human C-peptide level at 1 day after injection. How it is done: To analyze the levels of C-peptide released from intravitreal K9-C-peptide depots, mice were anesthetized with 3% isoflurane and intravitreally injected with a total volume of 2 μL containing 0.6 mg/mL (1.2 μg) C-peptide or 10 mg/mL (20 μg) K9-C-peptide. Proteins were extracted from whole eyeballs using lysis buffer containing 50 mmol/L Tris (pH 7.5), 150 mmol/L sodium chloride, 1% Triton X-100, protease inhibitor cocktail (Roche, Basel, Switzerland), 25 mmol/L β-glycerophosphate, and 2 mmol/L sodium orthovanadate. The lysates were centrifuged at 14,000 rpm for 15 min, and then the supernatants were centrifuged at 8,000 rpm for 10 min using Amicon® Ultra 4 mL centrifugal filters with a molecular weight cutoff of 50 kDa (MilliporeSigma). C-peptide levels in the filtered supernatants (n = 6) were measured using a human C-peptide ELISA kit (MilliporeSigma) according to the manufacturer's protocol.
For orientation: In an ELISA, binding on a coated surface is turned into a signal by an enzyme label.

`CC(C)C[C@H](NC(=O)[C@H](C)NC(=O)[C@H](CC(C)C)NC(=O)[C@@H]1CCCN1C(=O)[C@H](CCC(N)=O)NC(=O)[C@H](CC(C)C)NC(=O)[C@H](CO)NC(=O)CNC(=O)[C@H](C)NC(=O)CNC(=O)[C@@H]1CCCN1C(=O)CNC(=O)CNC(=O)CNC(=O)[C@H](CC(C)C)NC(=O)[C@H](CCC(=O)O)NC(=O)[C@@H](NC(=O)[C@H](CCC(N)=O)NC(=O)CNC(=O)[C@@H](NC(=O)[C@H](CCC(N)=O)NC(=O)[C@H](CC(C)C)NC(=O)[C@H](CC(=O)O)NC(=O)[C@H](CCC(=O)O)NC(=O)[C@H](C)NC(=O)[C@@H](N)CCC(=O)O)C(C)C)C(C)C)C(=O)N[C@@H](CCC(=O)O)C(=O)NCC(=O)N[C@@H](CO)C(=O)N[C@@H](CC(C)C)C(=O)N[C@@H](CCC(N)=O)C(=O)O` [human C-peptide]: in data set [1], the circulating half-life is listed as 30 min. In data set [2], the level at time molar at 24 h was 0.07 nM.
